Structures can show the parent of a compound that is named as a salt.
Key:
[1] = biological target: T1, BACE1 (Homo sapiens, UniProt P56817); assay: Cellular Aβ-lowering assay b) (Abeta 40 AlphaLISA, HEK293 APP cells); format: cell-based; conditions: 18-20 hrs incubation, read-out: BACE1 cell act. Aβ40 IC50
T1 construct: Human HEK293 cells which are stably transfected with a vector expressing a cDNA of the human APP wt gene (APP695); endogenous in cells; host or cells: HEK293 cells stably expressing human APP695 wt
Procedure: Cellular Aβ-Lowering Assay:
b) Alternatively, the Abeta 40 AlphaLISA Assay can be used. The HEK293 APP cells were seeded in 96 well Microtiter plates in cell culture medium (Iscove's, plus 10% (v/v) fetal bovine serum, penicillin/streptomycin) to about 80% confluency and the compounds were added at a 3× concentration in 1/3 volume of culture medium (final DMSO concentration was kept at 1% v/v). After 18-20 hrs incubation at 37° C. and 5% CO2 in a humidified incubator, the culture supernatants were harvested for the determination of Aβ 40 concentrations using Perkin-Elmer Human Amyloid beta 1-40 (high specificity) Kit (Cat# AL275C).
In a Perkin-Elmer White Optiplate-384 (Cat#6007290), 2 ul culture supernatants were combined with 2 μl of a 10× AlphaLISA Anti-hAβ Acceptor beads+Biotinylated Antibody Anti-Aβ 1-40 Mix (50 μg/mL/5 nM). After 1 hour room temperature incubation, 16 μl of a 1.25× preparation of Streptavidin (SA) Donor beads (25 μg/mL) were added and incubated for 30 minutes in the Dark. Light Emission at 615 nm was then recorded using EnVision-Alpha Reader. Levels of Aβ 40 in the culture supernatants were calculated as percentage of maximum signal (cells treated with 1% DMSO without inhibitor). The IC50 values were calculated using the Excel XLfit software.

[2] = biological target: T2, BACE2 (Rattus norvegicus, UniProt Q6IE75); assay: BACE inhibition by measuring cellular TMEM27 cleavage (INS-TMEM27 cells, ELISA); format: cell-based; conditions: INS-TMEM27 (Ins1e rat) cells, shed human TMEM27 by ELISA; read-out: BACE2 cell act. IC50
T2 construct: endogenous cellular BACE2 in the Ins1e rat cell line; endogenous in cells; host or cells: INS-TMEM27 (INS1e-derived rat cell line with TetOn-inducible full-length hTMEM27)
T2 sequence (Q6IE75 63-514): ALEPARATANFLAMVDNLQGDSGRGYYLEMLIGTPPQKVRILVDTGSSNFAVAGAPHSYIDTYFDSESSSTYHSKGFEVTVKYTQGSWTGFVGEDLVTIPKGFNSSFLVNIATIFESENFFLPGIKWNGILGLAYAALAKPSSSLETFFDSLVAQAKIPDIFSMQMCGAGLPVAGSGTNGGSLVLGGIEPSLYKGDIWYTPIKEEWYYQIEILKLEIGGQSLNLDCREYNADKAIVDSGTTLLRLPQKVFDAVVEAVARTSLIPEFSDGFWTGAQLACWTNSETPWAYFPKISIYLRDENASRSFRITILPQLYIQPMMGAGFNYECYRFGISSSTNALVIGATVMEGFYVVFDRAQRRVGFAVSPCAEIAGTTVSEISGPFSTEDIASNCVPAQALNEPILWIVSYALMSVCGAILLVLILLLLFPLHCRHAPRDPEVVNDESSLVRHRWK
Excerpt: Assay for BACE Inhibition by Measuring Cellular TMEM27 Cleavage:
The assay uses the principle of inhibition of human TMEM27 cleavage by endogenous cellular BACE2 in the Ins1e rat cell line and shedding from the cell surface into the culture medium, followed by detection in an ELISA assay Inhibition of BACE2 prevents the cleavage and shedding in a dose-dependent manner.
The stable cell line “INS-TMEM27” represents an INS1e-derived cell line with inducible expression (using the TetOn system) of full-length hTMEM27 in a doxycycline-dependent manner. The cells are cultured throughout the experiment in RPMI1640+Glutamax (Invitrogen) Penicillin/Streptomycin, 10% Fetal bovine serum, […], […], 100 micrograms/ml G418 and 100 microgram/ml hygromycin and are grown inadherent culture at 37° C. in a standard CO2 cell culture incubator.
INS-TMEM27 cells are seeded in 96-well plates. After 2 days in culture, BACE2 inhibitor is added in a range of concentrations as required by the assay and after a further two hours, doxycycline is added to a final concentration of 500 ng/ml. The cells are incubated for a further 46 hours and the supernatant harvested for detection of shed TMEM27.
An ELISA assay (using a pair of mouse anti-human-TMEM27 antibodies, raised against the extracellular domain of TMEM27) is used for detection of TMEM27 in the culture medium. An EC50 for BACE2 inhibition is calculated using the ELISA readout for each inhibitor concentration with standard curve-fitting software such as XLFit for the Excel spreadsheet program.

T1 sequence (P56817 46-501): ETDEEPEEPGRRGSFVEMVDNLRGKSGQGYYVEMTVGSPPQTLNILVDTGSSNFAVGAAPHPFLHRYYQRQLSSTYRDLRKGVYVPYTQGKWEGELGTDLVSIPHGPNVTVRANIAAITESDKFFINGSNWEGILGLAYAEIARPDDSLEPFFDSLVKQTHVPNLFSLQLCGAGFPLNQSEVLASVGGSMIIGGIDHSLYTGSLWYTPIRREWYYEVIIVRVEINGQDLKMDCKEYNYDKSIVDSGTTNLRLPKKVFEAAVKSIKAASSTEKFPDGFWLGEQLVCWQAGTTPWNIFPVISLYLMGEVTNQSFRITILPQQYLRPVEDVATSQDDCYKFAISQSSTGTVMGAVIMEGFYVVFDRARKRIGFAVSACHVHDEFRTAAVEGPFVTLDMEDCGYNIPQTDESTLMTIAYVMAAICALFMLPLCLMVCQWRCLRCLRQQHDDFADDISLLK

Structure (SMILES) | IC50 [1] [µM] | IC50 [2] [µM]
CC1(C)OC(N)=N[C@](C)(c2cc(NC3CCC(c4ccccc4)C3)ccc2F)C1(F)F (mixture of isomers) [Example 49, (R)-5,5-Difluoro-4-[2-fluoro-5-((1RS,3RS)-3-phenyl-cyclopentylamino)-phenyl]-4,6,6-trimethyl-5,6-dihydro-4H-[1,3]oxazin-2-ylamine] | 1.21 | 
C[C@]1(c2cccc(OCC3CC3(F)F)c2)N=C(N)OCC1(F)F (mixture of isomers) [Example 57, (R)-4-[5-((RS)-2,2-Difluoro-cyclopropylmethoxy)-phenyl]-5,5-difluoro-4-methyl-5,6-dihydro-4H-[1,3]oxazin-2-ylamine] | 3.7 | 
C[C@]1(c2cc(-c3nc4ccc(Cl)cc4o3)c(F)cc2F)N=C(N)OCC1(F)F [Example 15, (R)-4-[5-(6-Chloro-benzooxazol-2-yl)-2,4-difluoro-phenyl]-5,5-difluoro-4-methyl-5,6-dihydro-4H-[1,3]oxazin-2-ylamine Hydrochloride] | 1.28 | 
C[C@]1(c2cc(-c3cncc(Cl)c3)c(F)cc2F)N=C(N)OCC1(F)F [Example 32, (R)-4-[5-(5-Chloro-pyridin-3-yl)-2,4-difluoro-phenyl]-5,5-difluoro-4-methyl-5,6-dihydro-4H-[1,3]oxazin-2-ylamine] | 0.88 | 
C[C@]1(c2cc(-c3cncnc3)c(F)cc2F)N=C(N)OCC1(F)F [Example 33, (R)-4-(2,4-Difluoro-5-pyrimidin-5-yl-phenyl)-5,5-difluoro-4-methyl-5,6-dihydro-4H-[1,3]oxazin-2-ylamine] | 0.38 | 
CC1(C)OC(N)=N[C@](C)(c2cc(Nc3cccc(C(F)(F)F)n3)ccc2F)C1(F)F [Example 47, (R)-5,5-Difluoro-4-[2-fluoro-5-(6-trifluoromethyl-pyridin-2-ylamino)-phenyl]-4,6,6-trimethyl-5,6-dihydro-4H-[1,3]oxazin-2-ylamine] | 4.17 | 2.75
CC1(C)OC(N)=N[C@](C)(c2cc(-c3cc(C#N)ccc3Cl)ccc2F)C1(F)F [Example 52, 3′-((R)-2-Amino-5,5-difluoro-4,6,6-trimethyl-5,6-dihydro-4H-[1,3]oxazin-4-yl)-6-chloro-4′-fluoro-biphenyl-3-carbonitrile] | 2.88 | 
NC1=NC(c2cc(-c3cncc(Cl)c3)ccc2F)(C(F)F)CCO1 (stereo not drawn) [Example 53, 4-[5-(5-Chloro-pyridin-3-yl)-2-fluoro-phenyl]-4-difluoromethyl-5,6-dihydro-4H-[1,3]oxazin-2-ylamine] | 0.502 | 
NC1=N[C@@](c2cc(-c3cncc(Cl)c3)ccc2F)(C(F)F)CCO1 [Example 54B, (S)-4-[5-(5-Chloro-pyridin-3-yl)-2-fluoro-phenyl]-4-difluoromethyl-5,6-dihydro-4H-[1,3]oxazin-2-ylamine] | 0.22 | 
CCc1ccc(Cc2nc3ccc([C@@]4(C)N=C(N)OCC4(F)F)cc3[nH]2)cc1 [Example 55, (R)-4-[2-(4-Ethyl-benzyl)-3H-benzoimidazol-5-yl]-5,5-difluoro-4-methyl-5,6-dihydro-4H-[1,3]oxazin-2-ylamine] | 1.45 | 
C[C@]1(c2cc(NCc3cc(F)cc(F)c3)ccc2F)N=C(N)OC[C@@H]1F [Example 56, (4R,5R)-4-[5-(3,5-Difluoro-benzylamino)-2-fluoro-phenyl]-5-fluoro-4-methyl-5,6-dihydro-4H-[1,3]oxazin-2-ylamine] | 0.8 | 
C[C@]1(c2cccc(OCCC(F)(F)F)c2)N=C(N)OCC1(F)F [Example 58, (R)-5,5-Difluoro-4-methyl-4-[3-(3,3,3-trifluoro-propoxy)-phenyl]-5,6-dihydro-4H-[1,3]oxazin-2-ylamine] | 2.01 | 

Results, then the compound that gave them:

IC50 [1] [µM] | IC50 [2] [µM] | Structure (SMILES)
0.42 |  | C[C@]1(C2CC2C(=O)Nc2cccc3cc(Cl)cnc23)N=C(N)OCC1(F)F (stereo in doubt) [Example 62, (1S,2S)-rel-2-((R)-2-Amino-5,5-difluoro-4-methyl-5,6-dihydro-4H-[1,3]oxazin-4-yl)-cyclopropanecarboxylic acid(3-chloro-quinolin-8-yl)-amide]
3.12 |  | C[C@]1(c2cccc(OCC3CC3)c2)N=C(N)OCC1(F)F [Example 59, (R)-4-(3-Cyclopropylmethoxy-phenyl)-5,5-difluoro-4-methyl-5,6-dihydro-4H-[1,3]oxazin-2-ylamine]
4.62 |  | C[C@]1(c2cnn(-c3cccc(C#N)c3)c2)N=C(N)OCC1(F)F [Example 60, 3-[4-((R)-2-Amino-5,5-difluoro-4-methyl-5,6-dihydro-4H-[1,3]oxazin-4-yl)-pyrazol-1-yl]-benzonitrile]
0.72 |  | C#Cc1cccc(-n2cc([C@@]3(C)N=C(N)OCC3(F)F)cn2)c1 [Example 61, (R)-4-[1-(3-Ethynyl-phenyl)-1H-pyrazol-4-yl]-5,5-difluoro-4-methyl-5,6-dihydro-4H-[1,3]oxazin-2-ylamine]
0.36 | 1.35 | C[C@]1([C@@H]2C[C@H]2C(=O)Nc2cccc3cc(Cl)cnc23)N=C(N)OCC1(F)F [Example 63, (1R,2R)-((R)-2-Amino-5,5-difluoro-4-methyl-5,6-dihydro-4H-[1,3]oxazin-4-yl)-cyclopropanecarboxylic acid(3-chloro-quinolin-8-yl)-amide]
0.18 |  | C[C@]1([C@@H]2C[C@H]2C(=O)Nc2csc3cc(C#N)cnc23)N=C(N)OCC1(F)F [Example 65, (1R,2R)-2-((R)-2-Amino-5,5-difluoro-4-methyl-5,6-dihydro-4H-[1,3]oxazin-4-yl)-cyclopropanecarboxylic acid(6-cyano-thieno[3,2-b]pyridin-3-yl)-amide]
1.44 |  | C[C@]1(c2cnn(-c3cccc(Br)c3)c2)N=C(N)OCC1(F)F [Intermediate K7.1, (R)-4-[1-(3-bromo-phenyl)-1H-pyrazol-4-yl]-5,5-difluoro-4-methyl-5,6-dihydro-4H-[1,3]oxazin-2-ylamine]

From patent US8785436B2, “1,3-oxazines as BACE 1 and/or BACE2 inhibitors” (Hoffmann-La Roche Inc., priority 2011, dated 2014)
